Test results reported in US20220217970A1, “Perfusion Regulated Organ Therapeutics with Enhanced Controlled Testing” (priority 2021, published 2022).

How the values were obtained:
[1] = system: split human marginal donor liver (MDL) lobes; assay: Ki67 and CK-7 immunohistochemistry labeling index of perfused split lobes (Experiment 2)
Description: As a proof of concept, the system 10 was used to test the effect on IRI by deferoxamine (DM), which is a chelator of iron and a ferroptosis regulator. During the testing, one liver lobe was used as an internal control for the treated lobe. Ferroptosis, an iron-dependent form of programmed cell death, has been implicated as a mechanism of pathogenesis in models of liver, kidney, and lung reperfusion injury. […] In the DM Agent Treated (DMAT) lobe, DM was administered to one split liver segment, while the other segment served as the No Agent Internal Control (NAIC) lobe. This experiment was deemed as Experiment 2.
(§1) DM Dosing: In addition to the liver lobe weight, the volume of the cold preservation solution was measured. […]
Liver biopsy tissue from each liver segment was fixed in 10% buffered formalin for 24 hours. […] The following describes the specific stains and the methods utilized for quantification.
Ki67 labeling index: The nuclear antigen Ki67 is expressed in the cell cycle phases G1, S, G2 and M, however not during G0. The percentage of the Ki67 positive nuclei are expressed as a labeling index, which provides an objective cell proliferation index in the tissues. […] All the positive (immunoreactive) hepatic nuclei were calculated and subsequently divided by the total number of cells in 5 non-overlapping high-power fields. […]

[2] = system: split human marginal donor liver (MDL) lobes; assay: Serological liver injury markers during PROTECT normothermic perfusion of split liver lobes (Experiment 2); settings: DM infusion 0.6 mmol/L, listed as DMAT
Text: In order to provide anatomic perfusion, a novel NMP described above and shown in FIGS. 1 and 2 was developed using an extra-corporal membrane oxygenation (ECMO) roller pump (Sorin/Stockert S3) with a modified circuit to provide dual blood supply to the hepatic artery and portal vein. Incorporated into this design was an arterial supply that passes through an oxygenator (Capiox Fx) and was connected to the hepatic artery.
Portal venous blood supply bypassed the oxygenator, was delivered to a reservoir, and then flowed by gravity into the portal vein. Pressure was regulated by the intrinsic resistance within the liver's arterial and portal venous circulations, combined with the resistance within the two limbs of the circuit and the flow delivered to each. […]
The circuit was monitored under guidance from a University certified ECMO perfusionist and the hospital ECMO physician team. […]
During each perfusion run (Table 1), laboratory analysis was carried out at regular intervals. Perfusate pH, pCO2, pO2, bicarbonate levels, and serum electrolytes (Na^+, K^+, Cl^−, ionized Ca^2+) were monitored every hour by automated blood gas analysis of both arterial and portal venous blood samples. […] Serum markers of liver injury, specifically AST, ALT, GGT, and alkaline phosphatase, were monitored hourly. […]
as §1

For `CC(=O)N(O)CCCCCNC(=O)CCC(=O)N(O)CCCCCNC(=O)CCC(=O)N(O)CCCCCN` [Deferoxamine], the “CK-7 expression (labeling index, bile duct proliferation)” value ([1]; Experiment 2, DMAT lobe (NAIC 0.30, p=0.29, n=5)) was 0.26, the “Ki67 index (hepatocellular proliferation)” value ([1]; conclusion of Experiment 2, DMAT lobe (NAIC 0.38, p=0.16)) was 0.32 and the “ΔALT (change in serum ALT over the course of the experiment)” value ([2]; Experiment 2, DM Agent Treated lobe vs No Agent Internal Control lobe (ΔALT NAIC 586)) was −405. For the same compound, the “ΔAST (change in serum AST over the course of the experiment)” value ([2]; Experiment 2, DM Agent Treated lobe vs No Agent Internal Control lobe (ΔAST NAIC 617)) was −380.
